{"source": "patent US20130210887A1", "about": "“DENDRIMERS AS NON-VIRAL VEHICLES FOR GENE THERAPY” (UNIVERSIDAD DE CASTILLA LA MANCHA, priority 2010, published 2013)", "tested_on": "siRNA", "test": "Gel shift (electrophoretic shift in agarose gel) of siRNA by coupling to the dendrimer", "format": "binding", "conditions": "2 μM siRNA; 30 min incubation at ambient temperature; 1% agarose gel, 15 min at 60V", "description": "FIG. 1, relates to the electrophoretic shift analysis of siRNA by the coupling to the compound of general formula (I). The numbers in (A) correspond to different N/P ratios (nitrogenated amines in compound of general formula (0/phosphates in siRNA): (1) 1:0 (siRNA alone), (2) 6:1, (3) 12:1, (4) 24:1, (5) 48:1, (6) 96:1, (7) 192:1 and (8) 384:1. The densitometric analysis of the results of the gel shift experiment are shown in (B).\nThe compound complexes of general formula (I)-siRNA were formed by mixing equal quantities of volume of the solution that contained compound of general formula (I) and of that containing the siRNA (Org Biomol Chem. 2007. 5: 1886-1893; Pharm Res. 2009. 26: 1181-1191), and incubating the mixture under stirring during 30 minutes at ambient temperature. Both molecules were dissolved in DEPC water (free from RNAses).\nThe shift in agarose gel was used to ascertain the N/P ratio (nitrogenated amines in compound of general formula (I)/phosphates in siRNA) adapted to obtain the greatest efficacy of bonding possible between both molecules (Mol Biol Rep. 2009. 36: 1083-1093; Am J Med Genet B Neuropsychiatr Genet. 2008. 147B: 769-777). The mixing of different concentrations of compound of general formula (I) and of 250 ng of siRNA was tested. […] The gels were photographed and the bands were quantified with a suitable image analysis system (Quantity One). […]"}
{"smiles": "NCCNC(=O)CCN(CCC(=O)NCCN)CCN(CCC(=O)NCCN)Cc1ccc(/C=C/c2cc(/C=C/c3ccc(CN(CCC(=O)NCCN)CCN(CCC(=O)NCCN)CCC(=O)NCCN)cc3)cc(/C=C/c3ccc(CN(CCC(=O)NCCN)CCN(CCC(=O)NCCN)CCC(=O)NCCN)cc3)c2)cc1", "note": "[compound of general formula (I)]", "values": [{"measurement": "concentration of compound of general formula (I) at which all the siRNA is fixed (P/N ratio of 12:1)", "value": 22, "unit": "µM"}]}
